Measured values: ChEMBL document CHEMBL3588773, “Volume of Distribution in Drug Design” (J Med Chem, 2015)

Tests used:
[1] = Lipophilicity, log P of the compound; details: octanol/water
[2] = Distribution coefficient, log D of the compound; format: physicochemical; details: octanol/water
[3] = Volume of distribution at steady state in mouse; format: ADME, organism-based; details: in vivo, read-out: Vdss
[4] = Volume of distribution at steady state in Sprague-Dawley rat at 2.5 mg/kg; format: ADME, organism-based; details: in vivo, read-out: Vdss
Heat shock protein HSP90 = Heat shock protein HSP90 (Homo sapiens, UniProt P07900+P08238); experiment: Inhibition of human recombinant HSP90 by scintillation proximity competition binding assay; format: protein assay
[5] = Volume of distribution at steady state in wild type mouse; format: ADME, organism-based; details: in vivo, read-out: Vdss
Homo sapiens [6] = species on record: Homo sapiens; experiment: Unbound intrinsic clearance in human; format: ADME, organism-based; details: in vivo
Homo sapiens [7] = species on record: Homo sapiens; experiment: Unbound volume of distribution at steady state in human; format: ADME, organism-based; details: in vivo
[8] = Dissociation constant of the compound; format: physicochemical
[9] = Volume of distribution at steady state in human; details: in vivo
[10] = (§1) Unbound fraction in human plasma; format: ADME, cell-free
Plasma = experiment: as §1; format: ADME, cell-free

**Q.** For `CCOC(=O)C1=C(COCCN)NC(C)=C(C(=O)OC)C1c1ccccc1Cl` (stereo not given) [AMLODIPINE], which logP [1] is on record?
**A.** 3.3

**Q.** What about the logD ([2]; read-out: logD) of the same compound?
**A.** 1.2

**Q.** Which Vd [3] does the source give for `O=C(CCCN1CCC(O)(c2ccc(Cl)cc2)CC1)c1ccc(F)cc1` [HALOPERIDOL] here?
**A.** 0.6 L/kg

**Q.** With `CC(C)(NC(=O)N1Cc2nc(N)nc(-c3c(Cl)cc(Cl)cc3OCCn3cccn3)c2C1)C12CC(C1)C2` as the compound, how does the Vd [4] read?
**A.** 1.8 L/kg

**Q.** What about the Ki (Heat shock protein HSP90) of the same compound?
**A.** 7.3 nM

**Q.** Which Vd [5] does the source give for `CCC(C)(C)C(=O)O[C@H]1C[C@@H](C)C=C2C=C[C@H](C)[C@H](CC[C@@H]3C[C@@H](O)CC(=O)O3)[C@H]21` [SIMVASTATIN] here?
**A.** 14 L/kg

**Q.** Which logP [1] does the source give for `COCCOC(=O)C1=C(C)NC(C)=C(C(=O)OC(C)C)C1c1cccc([N+](=O)[O-])c1` (stereo not given) [NIMODIPINE] here?
**A.** 4.2

**Q.** For `COCCc1ccc(OCC(O)CNC(C)C)cc1` (stereo not given) [METOPROLOL], which CL free (Homo sapiens [6]) is on record?
**A.** 33 mL/min/kg

**Q.** What about the logD ([2]; read-out: logD) of the same compound?
**A.** -0.1

**Q.** And the Vduss (Homo sapiens [7])?
**A.** 4 L/kg

**Q.** What does the source list for `CC(C(=O)O)c1cccc(C(=O)c2ccccc2)c1` (stereo not given) [KETOPROFEN]?
**A.** logP [1]: 2.9; logD ([2]; read-out: logD): 0.2

**Q.** With `CNCCC(Oc1ccc(C(F)(F)F)cc1)c1ccccc1` (stereo not given) [FLUOXETINE] as the compound, how does the pKa [8] read?
**A.** 10.5

**Q.** And the Vd [9]?
**A.** 4.3 L/kg

**Q.** And the fraction unbound [10]?
**A.** 0.06

**Q.** And the Vduss (Homo sapiens [7])?
**A.** 71 L/kg

**Q.** For `CC(C)NCC(O)COc1ccc(CCOCC2CC2)cc1` (stereo not given) [BETAXOLOL], which CL free (Homo sapiens [6]) is on record?
**A.** 13 mL/min/kg

**Q.** What about the logD [2] of the same compound?
**A.** 1.1

**Q.** And the Vduss (Homo sapiens [7])?
**A.** 13 L/kg

**Q.** With `COc1ccc2c(c1)c(CC(=O)O)c(C)n2C(=O)c1ccc(Cl)cc1` [INDOMETHACIN] as the compound, how does the Fu (Plasma) read?
**A.** 0.01

**Q.** What about the logD ([2]; read-out: logD) of the same compound?
**A.** 0.7

**Q.** And the Vduss (Homo sapiens [7])?
**A.** 9.6 L/kg

**Q.** Which results are given for `CC(C)(CC(F)(F)F)NC(=O)N1Cc2nc(N)nc(-c3c(Cl)cc(Cl)cc3OCCn3cccn3)c2C1`?
**A.** Vd [4]: 2 L/kg; Ki (Heat shock protein HSP90): 9.7 nM

**Q.** Which Vd [4] does the source give for `CC(C)(NC(=O)N1Cc2nc(N)nc(-c3c(Cl)cc(Cl)cc3OCCn3cc(F)cn3)c2C1)C12CC(C1)C2` here?
**A.** 11 L/kg

**Q.** And the Ki (Heat shock protein HSP90)?
**A.** 3.3 nM

**Q.** What does the source list for `CC(F)(F)CC(C)(C)NC(=O)N1Cc2nc(N)nc(-c3c(Cl)cc(Cl)cc3OCCn3cccn3)c2C1`?
**A.** Vd [4]: 1.8 L/kg; Ki (Heat shock protein HSP90): 6.6 nM

**Q.** For `CC(C)(CC(F)(F)F)NC(=O)N1Cc2nc(N)nc(-c3c(Cl)cc(Cl)cc3OCCn3cc(F)cn3)c2C1`, which Vd [4] is on record?
**A.** 13 L/kg

**Q.** What about the Ki (Heat shock protein HSP90) of the same compound?
**A.** 2.1 nM

**Q.** Which Vd [5] does the source give for `CC[C@H](C)C(=O)O[C@H]1C[C@H](O)C=C2C=C[C@H](C)[C@H](CC[C@@H](O)C[C@@H](O)CC(=O)O)[C@H]21` [PRAVASTATIN] here?
**A.** 0.27 L/kg

**Q.** Which Vd [4] does the source give for `CC(F)(F)CC(C)(C)NC(=O)N1Cc2nc(N)nc(-c3c(Cl)cc(Cl)cc3OCCn3cc(F)cn3)c2C1` here?
**A.** 10 L/kg

**Q.** What about the Ki (Heat shock protein HSP90) of the same compound?
**A.** 1.7 nM

**Q.** Which Vd [3] does the source give for `O=c1n(CCCN2CCN(c3cccc(Cl)c3)CC2)nc2ccccn12` [TRAZODONE] here?
**A.** 18 L/kg

**Q.** With `OC(Cn1cncn1)(Cn1cncn1)c1ccc(F)cc1F` [FLUCONAZOLE] as the compound, how does the Vduss (Homo sapiens [7]) read?
**A.** 0.84 L/kg

**Q.** Which Vd [9] does the source give for `CN(C)CCC(c1ccc(Cl)cc1)c1ccccn1` (stereo not given) [CHLORPHENIRAMINE] here?
**A.** 10 L/kg

**Q.** And the logP [1]?
**A.** 3.4

**Q.** What about the Fu (Plasma) of the same compound?
**A.** 0.056

**Q.** And the logD ([2]; read-out: logD)?
**A.** 1.5

**Q.** And the Vduss (Homo sapiens [7])?
**A.** 178 L/kg
